Reference: PubChem BioAssay (NCI)
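96-well plates; 48 h exposure; 5 concentrations. Endpoints by linear interpolation between flanking doses. Not reached: highest tested concentration assigned. TGI: total growth inhibition.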

What was measured:
Assay in all cases: NCI-60 cell line screen, 48 h
[1] = test system: 786-0 renal
[2] = test system: A498 renal
[3] = test system: A549 NSCLC
[4] = test system: ACHN renal
[5] = test system: CAKI-1 renal
[6] = test system: CCRF-CEM leukemia
[7] = test system: COLO 205 colon
[8] = test system: DU-145 prostate
[9] = test system: EKVX NSCLC
[10] = test system: HCC-2998 colon
[11] = test system: HCT-116 colon
[12] = test system: HCT-15 colon
[13] = test system: HL-60(TB) leukemia
[14] = test system: HOP-62 NSCLC
[15] = test system: HOP-92 NSCLC
[16] = test system: HS 578T breast
[17] = test system: HT29 colon
[18] = test system: IGROV1 ovarian
[19] = test system: K-562 leukemia
[20] = test system: KM12 colon
[21] = test system: LOX IMVI melanoma
[22] = test system: M14 melanoma
[23] = test system: MALME-3M melanoma
[24] = test system: MDA-MB-231 breast
[25] = test system: MDA-MB-435
[26] = test system: MDA-N
[27] = test system: MOLT-4 leukemia
[28] = test system: NCI-H226 lung
[29] = test system: NCI-H23 lung
[30] = test system: NCI-H460 lung
[31] = test system: NCI-H522 lung
[32] = test system: NCI/ADR-RES ovarian
[33] = test system: OVCAR-3 ovarian
[34] = test system: OVCAR-4 ovarian
[35] = test system: OVCAR-5 ovarian
[36] = test system: OVCAR-8 ovarian
[37] = test system: PC-3 prostate
[38] = test system: RPMI-8226 leukemia
[39] = test system: RXF 393 renal
[40] = test system: SF-268 CNS
[41] = test system: SF-295 CNS
[42] = test system: SF-539 CNS
[43] = test system: SK-MEL-2 melanoma
[44] = test system: SK-MEL-28 melanoma
[45] = test system: SK-MEL-5 melanoma
[46] = test system: SK-OV-3 ovarian
[47] = test system: SN12C renal
[48] = test system: SNB-19 CNS
[49] = test system: SNB-75 CNS
[50] = test system: SR leukemia
[51] = test system: SW-620 colon
[52] = test system: T-47D breast
[53] = test system: TK-10 renal
[54] = test system: U251 CNS
[55] = test system: UACC-257 melanoma
[56] = test system: UACC-62 melanoma
[57] = test system: UO-31 renal
[58] = test system: BT-549 breast
[59] = test system: MCF7 breast

For `N#Cc1c(N2CCCC2)ncn(-c2ccccc2)c1=O`, the TGI [1] was > 100 µM, the TGI [2] was > 100 µM and the TGI [3] was > 100 µM. The TGI [4] was > 100 µM, the TGI [5] was > 100 µM and the TGI [6] was > 100 µM. For the same compound, the TGI [7] was > 100 µM, the TGI [8] was > 100 µM and the TGI [9] was > 100 µM. For the same compound, the TGI [10] was > 100 µM, the TGI [11] was > 100 µM and the TGI [12] was > 100 µM. For the same compound, the TGI [13] was > 100 µM, the TGI [14] was > 100 µM and the TGI [15] was > 100 µM. The TGI [16] was > 100 µM, the TGI [17] was > 100 µM and the TGI [18] was > 100 µM. For the same compound, the TGI [19] was > 100 µM, the TGI [20] was > 100 µM and the TGI [21] was > 100 µM. The TGI [22] was > 100 µM, the TGI [23] was > 100 µM and the TGI [24] was > 100 µM. The TGI [25] was > 100 µM, the TGI [26] was > 100 µM and the TGI [27] was > 100 µM. For the same compound, the TGI [28] was > 100 µM, the TGI [29] was > 100 µM and the TGI [30] was > 100 µM. For the same compound, the TGI [31] was > 100 µM, the TGI [32] was > 100 µM and the TGI [33] was > 100 µM. For the same compound, the TGI [34] was > 100 µM, the TGI [35] was > 100 µM and the TGI [36] was > 100 µM. The TGI [37] was > 100 µM, the TGI [38] was > 100 µM and the TGI [39] was > 100 µM. The TGI [40] was > 100 µM, the TGI [41] was > 100 µM and the TGI [42] was > 100 µM. For the same compound, the TGI [43] was > 100 µM, the TGI [44] was > 100 µM and the TGI [45] was > 100 µM. The TGI [46] was > 100 µM, the TGI [47] was > 100 µM and the TGI [48] was > 100 µM. For the same compound, the TGI [49] was > 100 µM, the TGI [50] was > 100 µM and the TGI [51] was > 100 µM. For the same compound, the TGI [52] was > 100 µM, the TGI [53] was > 100 µM and the TGI [54] was > 100 µM. For the same compound, the TGI [55] was > 100 µM, the TGI [56] was > 100 µM and the TGI [57] was > 100 µM.
In the case of `Nc1c2c(nc3ccccc13)-c1ccccc1CC2`, the TGI [1] is reported as 14.1 µM, the TGI [2] is reported as 16.2 µM and the TGI [4] is reported as 14.1 µM. For the same compound, the TGI [58] was 27 µM, the TGI [6] was 18.9 µM and the TGI [7] was 15.8 µM. For the same compound, the TGI [10] was 2.81 µM, the TGI [11] was 13.5 µM and the TGI [12] was 17.5 µM. The TGI [13] was 14.5 µM, the TGI [15] was 21.9 µM and the TGI [16] was 40.5 µM. The TGI [18] was 19.8 µM, the TGI [19] was 17.3 µM and the TGI [21] was 15.5 µM. It also gave a TGI [23] of 20.8 µM, a TGI [59] of 13.8 µM and a TGI [24] of 17.8 µM. It also gave a TGI [26] of 16 µM, a TGI [27] of 9.23 µM and a TGI [28] of 31.5 µM. It also gave a TGI [29] of 27.2 µM, a TGI [30] of 6.22 µM and a TGI [31] of 24.5 µM. It also gave a TGI [32] of 27.8 µM, a TGI [36] of 18 µM and a TGI [37] of 14.4 µM. For the same compound, the TGI [38] was 21.7 µM, the TGI [40] was 22.3 µM and the TGI [42] was 15.1 µM. For the same compound, the TGI [43] was 23 µM, the TGI [44] was 22.8 µM and the TGI [45] was 15.3 µM. For the same compound, the TGI [47] was 16.9 µM, the TGI [50] was 9.31 µM and the TGI [51] was 14.8 µM. For the same compound, the TGI [53] was 14.7 µM, the TGI [54] was 15.8 µM and the TGI [55] was 9.09 µM. For the same compound, the TGI [56] was 21.4 µM.
`Cc1ccc(Cl)c2[nH]c(-c3ccccc3)cc(=O)c12` was tested, and the TGI [1] was > 100 µM, the TGI [2] was > 100 µM and the TGI [3] was 72 µM. The TGI [4] was 98.4 µM, the TGI [6] was > 100 µM and the TGI [7] was > 100 µM. The TGI [8] was > 100 µM, the TGI [9] was 45 µM and the TGI [10] was > 100 µM. For the same compound, the TGI [11] was > 100 µM, the TGI [12] was > 100 µM and the TGI [13] was > 100 µM. The TGI [14] was > 100 µM, the TGI [16] was > 100 µM and the TGI [17] was > 100 µM. For the same compound, the TGI [18] was > 100 µM, the TGI [19] was > 100 µM and the TGI [20] was > 100 µM. For the same compound, the TGI [21] was > 100 µM, the TGI [22] was > 100 µM and the TGI [23] was > 100 µM. For the same compound, the TGI [59] was 34.6 µM, the TGI [24] was > 100 µM and the TGI [25] was > 100 µM. For the same compound, the TGI [26] was > 100 µM, the TGI [27] was > 100 µM and the TGI [28] was > 100 µM. The TGI [29] was > 100 µM, the TGI [30] was > 100 µM and the TGI [31] was > 100 µM. For the same compound, the TGI [32] was > 100 µM, the TGI [33] was > 100 µM and the TGI [34] was > 100 µM. For the same compound, the TGI [35] was > 100 µM, the TGI [36] was > 100 µM and the TGI [37] was > 100 µM. The TGI [38] was > 100 µM, the TGI [39] was > 100 µM and the TGI [40] was 79.7 µM. The TGI [41] was > 100 µM, the TGI [43] was > 100 µM and the TGI [44] was > 100 µM. For the same compound, the TGI [45] was > 100 µM, the TGI [46] was > 100 µM and the TGI [47] was > 100 µM. For the same compound, the TGI [49] was > 100 µM, the TGI [51] was > 100 µM and the TGI [52] was > 100 µM. For the same compound, the TGI [53] was > 100 µM, the TGI [54] was > 100 µM and the TGI [55] was > 100 µM. The TGI [56] was > 100 µM.
With `O=C1CC(NC(=O)C(F)(F)F)c2c(Br)sc(N3CCNCC3)c21` (stereo not given) the TGI [1] was > 100 µM, the TGI [2] was > 100 µM and the TGI [3] was > 100 µM. The TGI [4] was > 100 µM, the TGI [58] was > 100 µM and the TGI [5] was > 100 µM. For the same compound, the TGI [6] was > 100 µM, the TGI [7] was > 100 µM and the TGI [8] was > 100 µM. The TGI [9] was > 100 µM, the TGI [10] was > 100 µM and the TGI [11] was > 100 µM. For the same compound, the TGI [12] was > 100 µM, the TGI [13] was > 100 µM and the TGI [15] was > 100 µM. For the same compound, the TGI [16] was > 100 µM, the TGI [17] was > 100 µM and the TGI [18] was > 100 µM. The TGI [19] was > 100 µM, the TGI [20] was > 100 µM and the TGI [21] was > 100 µM. For the same compound, the TGI [22] was > 100 µM, the TGI [23] was > 100 µM and the TGI [59] was > 100 µM. For the same compound, the TGI [24] was > 100 µM, the TGI [25] was > 100 µM and the TGI [26] was > 100 µM. For the same compound, the TGI [27] was > 100 µM, the TGI [28] was > 100 µM and the TGI [29] was > 100 µM. For the same compound, the TGI [30] was > 100 µM, the TGI [31] was > 100 µM and the TGI [32] was > 100 µM. For the same compound, the TGI [33] was > 100 µM, the TGI [34] was > 100 µM and the TGI [35] was > 100 µM. For the same compound, the TGI [36] was > 100 µM, the TGI [37] was > 100 µM and the TGI [39] was > 100 µM. For the same compound, the TGI [40] was > 100 µM, the TGI [41] was > 100 µM and the TGI [42] was > 100 µM. For the same compound, the TGI [43] was > 100 µM, the TGI [44] was > 100 µM and the TGI [45] was > 100 µM. For the same compound, the TGI [46] was > 100 µM, the TGI [47] was > 100 µM and the TGI [48] was > 100 µM. For the same compound, the TGI [49] was > 100 µM, the TGI [51] was > 100 µM and the TGI [52] was > 100 µM. The TGI [53] was > 100 µM, the TGI [54] was > 100 µM and the TGI [55] was > 100 µM. The TGI [56] was > 100 µM and the TGI [57] was > 100 µM.
